Assay [1] has as its target T1, hTRβ-LBD (Homo sapiens, UniProt P10828).
T1 construct: The receptor ERα-LBD or TRβ-LBD, expressed using reported protocols; made in house
T1 sequence (P10828 217-461 limits assumed): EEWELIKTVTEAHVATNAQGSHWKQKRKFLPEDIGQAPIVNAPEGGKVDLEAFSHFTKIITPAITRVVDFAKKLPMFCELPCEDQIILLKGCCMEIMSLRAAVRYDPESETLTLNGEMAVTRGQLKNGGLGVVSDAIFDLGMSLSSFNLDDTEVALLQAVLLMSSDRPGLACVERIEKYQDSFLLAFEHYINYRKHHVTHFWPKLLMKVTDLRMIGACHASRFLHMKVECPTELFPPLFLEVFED
In words: Fluorescence polarization assay of coregulator peptide binding to TRβ-LBD. To be noted: for Kd: TRβ-LBD with ligand T3, 10 nM fluorescent peptide, mean of 2 independent assays in quadruplicate, AL = assay limits, read-out: Observed Kd (dissociation constants for p160 peptides for TRβ). The procedure: (§1) The peptide library synthesized in Example 1 was assayed with ERα or TRβ receptor. Library members were kept at a constant concentration of 10 nM. A ligand was optionally added to the nuclear hormone receptor.
(§2) The receptor ERα-LBD or TRβ-LBD, expressed using reported protocols (for TR see, e.g., Darimont et al., Genes Dev., 12(21):3343-56, (1998); and for ER, see, e.g., Shiau et al., Cell, (1998), 95(7):927-937), was used. The concentration of protein varied between 0.001-20 μM in the following way. In 96 well plates, hTRβ-LBD or hERα-LBD was serially diluted from 40 μM to 0.002 μM in binding buffer (50 mM Sodium Phosphate, 150 mM NaCl, pH 7.2, 1 mM DTT, 1 mM EDTA, 0.01% NP40, 10% glycerol), containing 200 μM ligand (T3, for TRβ, or estradiol, diethylstilbestrol, genistein or tamoxifen for ERα).
(§3) Subsequently 10 μL of diluted protein was added to 10 μL of fluorescent coregulator peptide (20 nM) in 384-well plates yielding final protein concentrations of […] and 10 nM fluorescent peptide concentration. The samples were allowed to equilibriate for 30 minutes. Binding was then measured using fluorescence polarization (excitation λ at 485 nm, emission λ at 530 nm) on an Analyst AD (available from Molecular Devices).
One of the major potential perturbing phenomena in this assay is unexpected quenching or enhancement of fluorescence intensity. To control for this, both overall fluorescence intensity and fluorescence anisotropy for each sample were simultaneously monitored.
(§4) All experiments were carried out in quadruplicate, with each iteration containing the positive and negative controls, and 10-12 dose points. The data were then fit using Klotz plots to determine IC50 values using nonlinear regression analysis that fits the data to a modification of the model of Heyduk and Lee. (Heyduk et al., Proc. Natl. Acad. Sci., (1990), 1774; Heyduk et al., Nature, (1993), 364, 6437; Heyduk et al., Methods Enzymol., 274, 492. Further analysis was conducted using Hill and Scatchard plots to confirm number and homogeneity of binding sites as discussed hereinbelow.
FIGS. 1 to 3 illustrate the results of three different measurements of the binding affinity of selected members of the SRC peptide library to TRβ-LBD. FIG. 4 illustrates a Scatchard plot, which provides the Kd for the SRC2-2 peptide. FIG. 5 illustrates a Hill plot, which provides the Kd for the SRC2-2 peptide. Both the Scatchard and Hill plot correlate with the direct binding plots illustrated in FIGS. 1-3. The Scatchard data were best fit to a linear function, which indicates a single class of binding sites. The slope of the Hill plot is 1, which also indicates a single class of binding sites. Measured dissociation constants for binding of the SRC peptide library to TRβ are illustrated in Table 3. […]
In general terms: Polarisation of emitted light reports the rotation of a fluorescent probe.

The target of the next assay is T2, hERα-LBD (Homo sapiens, UniProt P03372).
T2 construct: The receptor ERα-LBD or TRβ-LBD, expressed using reported protocols; made in house
T2 sequence (P03372 311-547 limits assumed): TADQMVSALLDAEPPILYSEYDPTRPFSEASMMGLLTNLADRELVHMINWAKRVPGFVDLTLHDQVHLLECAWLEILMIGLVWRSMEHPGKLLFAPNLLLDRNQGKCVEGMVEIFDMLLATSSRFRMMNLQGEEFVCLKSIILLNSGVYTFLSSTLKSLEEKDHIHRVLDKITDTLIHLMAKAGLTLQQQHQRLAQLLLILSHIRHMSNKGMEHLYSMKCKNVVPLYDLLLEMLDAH
The assay can be described thus: Fluorescence polarization assay of coregulator peptide binding to ERα-LBD. Conditions: ERα-LBD in the presence of estradiol; read-out: Dissociation constant for ERα, Estradiol. As for the experimental part:
as §1, §2, §3, §4
FIG. 6 illustrates direct binding of SRC2-2 to ERα-LBD in the presence of the ligands estradiol, diethylstilbestrol and genistein. […] Measured dissociation constants for binding of members of the SRC peptide library to ERα, in the presence of 3 different ligands, are illustrated in Table 4 wherein the binding units are μM. Table 5 illustrates a comparison of binding constants (μM) for SRC peptides with the TRβ receptor in the presence of thyroid hormone T3, and the ERα receptor in the presence of estradiol.

For assay [2], the target named is T1, hTRβ-LBD. To be noted: cited from earlier work.
Assay [3] deals with T3, hERα-LBD (ligand binding domain of estrogen receptor α) (human, UniProt P03372 297-554).
T3 construct: Assayed with estradiol, diethylstilbestrol, genistein or tamoxifen present; the ligand is named under assay in each row
T3 sequence (looked up): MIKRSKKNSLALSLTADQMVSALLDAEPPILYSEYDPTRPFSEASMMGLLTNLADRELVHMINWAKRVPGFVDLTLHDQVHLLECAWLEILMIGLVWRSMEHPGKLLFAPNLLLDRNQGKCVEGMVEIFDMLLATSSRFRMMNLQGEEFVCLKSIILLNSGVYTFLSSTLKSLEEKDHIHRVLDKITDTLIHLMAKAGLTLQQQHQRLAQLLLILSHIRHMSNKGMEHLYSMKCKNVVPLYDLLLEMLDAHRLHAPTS
The assay can be described thus: fluorescence polarization, labelled peptide 10 nM, hERα-LBD titrated, genistein present. The procedure: (§5) The concentration of protein varied between 0.001-20 μM in the following way. In 96 well plates, hTRβ-LBD or hERα-LBD was serially diluted from 40 μM to 0.002 μM in binding buffer (50 mM Sodium Phosphate, 150 mM NaCl, pH 7.2, 1 mM DTT, 1 mM EDTA, 0.01% NP40, 10% glycerol), containing 200 μM ligand (T₃, for TRβ, or estradiol, diethylstilbestrol, genistein or tamoxifen for ERα).
as §3
(§6) All experiments were carried out in quadruplicate, with each iteration containing the positive and negative controls, and 10-12 dose points. The data were then fit using Klotz plots to determine IC₅₀ values using nonlinear regression analysis that fits the data to a modification of the model of Heyduk and Lee. (Heyduk et al., Proc. Natl. Acad. Sci., (1990), 1774; Heyduk et al., Nature, (1993), 364, 6437; Heyduk et al., Methods Enzymol., 274, 492. Further analysis was conducted using Hill and Scatchard plots to confirm number and homogeneity of binding sites as discussed hereinbelow.

Assay [4] concerns the target T4, hTRβ-LBD (ligand binding domain of thyroid hormone receptor β) (human, UniProt P10828 202-461).
T4 construct: Assayed with the small-molecule ligand T3 present
T4 sequence (looked up): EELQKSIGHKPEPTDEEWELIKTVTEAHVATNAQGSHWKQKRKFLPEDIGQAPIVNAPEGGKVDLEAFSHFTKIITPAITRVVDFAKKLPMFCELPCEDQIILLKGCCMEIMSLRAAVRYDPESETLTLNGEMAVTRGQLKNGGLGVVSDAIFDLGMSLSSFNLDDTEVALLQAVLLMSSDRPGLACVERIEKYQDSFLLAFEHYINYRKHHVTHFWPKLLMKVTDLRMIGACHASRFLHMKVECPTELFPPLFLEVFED
The assay can be described thus: fluorescence polarization, hTRβ-LBD titrated, T3 present; Table 3 prints ≧3 µM for this pair. The procedure:
as §5, §3, §6

In assay [5] the target is T3, hERα-LBD (ligand binding domain of …). In words: fluorescence polarization, labelled peptide 10 nM, hERα-LBD titrated, diethylstilbestrol present. The procedure:
as §5, §3, §6

For assay [6], the target named is T4, hTRβ-LBD (ligand binding domain of …). The assay can be described thus: fluorescence polarization, hTRβ-LBD titrated, T3 present; repeats Table 3. As for the experimental part:
as §5, §3, §6

The target in assay [7] is T3, hERα-LBD (ligand binding domain of …). The assay can be described thus: fluorescence polarization, hERα-LBD titrated, estradiol present; repeats Table 4. The procedure:
as §5, §3, §6

The target is the same in assay [8]. The assay can be described thus: fluorescence polarization, labelled peptide 10 nM, hERα-LBD titrated, estradiol present. The procedure:
as §5, §3, §6

For assay [9], the target named is T4, hTRβ-LBD (ligand binding domain of …). The assay can be described thus: fluorescence polarization, fluorescein-labelled peptide 10 nM, hTRβ-LBD titrated, T3 present. As for the experimental part:
as §5, §3, §6

Setting [10] is: TRβ, Darimont et al., Genes & Dev. (1998) 12:3343, read-out: Published Results: Kd app.

Where two headings read alike, the source gives them in different places. Ends that are not written are not given here. Peptide text beside a SMILES is read from it. * marks the point of attachment. Fluorescein(5-NHCOCH2) = O=C(C*)Nc1ccc2c(c1)C(=O)OC21c2ccc(O)cc2Oc2cc(O)ccc21

Regarding `CC[C@H](C)[C@H](NC(=O)[C@H](CCCCN)NC(=O)[C@H](Cc1c[nH]cn1)NC(=O)[C@H](CCCNC(=N)N)NC(=O)[C@H](C)NC(=O)[C@@H](NC(=O)[C@H](CC(C)C)NC(=O)[C@@H](N)CSCC(=O)Nc1ccc2c(c1)C(=O)OC21c2ccc(O)cc2Oc2cc(O)ccc21)[C@@H](C)O)C(=O)N[C@@H](CC(C)C)C(=O)N[C@@H](Cc1c[nH]cn1)C(=O)N[C@@H](CCCNC(=N)N)C(=O)N[C@@H](CC(C)C)C(=O)N[C@@H](CC(C)C)C(=O)N[C@@H](CCC(N)=O)C(=O)N[C@@H](CCC(=O)O)C(=O)NCC(=O)N[C@@H](CO)C(=O)N1CCC[C@H]1C(=O)N[C@@H](CO)C(=O)N[C@@H](CC(=O)O)C(=O)O` [SRC1-2], the Kd at hTRβ-LBD [1] was determined as 930 nM; at hERα-LBD, 231 nM.

Turning to `CC[C@H](C)[C@H](NC(=O)[C@H](CCCCN)NC(=O)[C@H](Cc1c[nH]cn1)NC(=O)[C@H](CCCCN)NC(=O)[C@H](CCC(=O)O)NC(=O)[C@H](CCCCN)NC(=O)[C@H](CC(C)C)NC(=O)[C@@H](N)CSCC(=O)Nc1ccc2c(c1)C(=O)OC21c2ccc(O)cc2Oc2cc(O)ccc21)C(=O)N[C@@H](CC(C)C)C(=O)N[C@@H](Cc1c[nH]cn1)C(=O)N[C@@H](CCCNC(=N)N)C(=O)N[C@@H](CC(C)C)C(=O)N[C@@H](CC(C)C)C(=O)N[C@@H](CCC(N)=O)C(=O)N[C@@H](CC(=O)O)C(=O)N[C@@H](CO)C(=O)N[C@@H](CO)C(=O)N[C@@H](CO)C(=O)N1CCC[C@H]1C(=O)N[C@H](C(=O)O)C(C)C` [SRC2-2], the Kd at hTRβ-LBD [1] was 670 nM; on hERα-LBD, 222 nM; at hTRβ-LBD [2] (setting [10]), 800 nM; on hTRβ-LBD [2] (hTRβ-LBD, reported value, read-out: Reported Kd), 1000 nM.

Turning to `CC(C)C[C@H](NC(=O)[C@H](C)NC(=O)[C@H](CC(N)=O)NC(=O)[C@H](CCC(=O)O)NC(=O)[C@H](CCCCN)NC(=O)[C@H](CCCCN)NC(=O)[C@H](CCCCN)NC(=O)[C@@H](N)CSCC(=O)Nc1ccc2c(c1)C(=O)OC21c2ccc(O)cc2Oc2cc(O)ccc21)C(=O)N[C@@H](CC(C)C)C(=O)N[C@@H](CCCNC(=N)N)C(=O)N[C@@H](Cc1ccc(O)cc1)C(=O)N[C@@H](CC(C)C)C(=O)N[C@@H](CC(C)C)C(=O)N[C@@H](CC(=O)O)C(=O)N[C@@H](CCCCN)C(=O)N[C@@H](CC(=O)O)C(=O)N[C@@H](CC(=O)O)C(=O)N[C@H](C(=O)N[C@@H](CCCCN)C(=O)N[C@@H](CC(=O)O)C(=O)O)[C@@H](C)O` [SRC2-3], the Kd was not below 3000 nM at hTRβ-LBD [1], 1420 nM at hERα-LBD and 3200 nM on hTRβ-LBD [2] (setting [10]).

On to `CC(C)C[C@H](NC(=O)[C@H](CCCCN)NC(=O)[C@H](CCCCN)NC(=O)[C@H](Cc1c[nH]cn1)NC(=O)CNC(=O)[C@H](CCCCN)NC(=O)[C@H](CO)NC(=O)[C@H](CCC(=O)O)NC(=O)[C@@H](N)CSCC(=O)Nc1ccc2c(c1)C(=O)OC21c2ccc(O)cc2Oc2cc(O)ccc21)C(=O)N[C@@H](CC(C)C)C(=O)N[C@@H](CCC(N)=O)C(=O)N[C@@H](CC(C)C)C(=O)N[C@@H](CC(C)C)C(=O)N[C@H](C(=O)N[C@@H](CS)C(=O)N[C@@H](CO)C(=O)N[C@@H](CO)C(=O)N[C@@H](CC(=O)O)C(=O)N[C@@H](CC(=O)O)C(=O)N[C@@H](CCCNC(=N)N)C(=O)O)[C@@H](C)O` [SRC3-1] (H-C(Fluorescein(5-NHCOCH2))ESKGHKKLLQLLTCSSDDR-OH; N-terminus assumed), for which the “Comparison of affinity for TRβ and ERα” value at hTRβ-LBD [1] (Tables 3, 4 and 5) is “approximately the same affinity”.

C(5‑iodoacetamidofluorescein)KKKENALLRYLLDKDDTKD [SRC2-3 coregulator peptide]: the Kd in [3] was 2000 nM; in assay [4], 3000 nM; in [5], 786 nM.

As for C(5‑iodoacetamidofluorescein)ESKGHKKLLQLLTCSSDDR (The peptide has a second, internal Cys) [SRC3-1 coregulator peptide], the Kd in assay [6] is 870 nM; in assay [7], 160 nM; in assay [8], 160 nM; in assay [3] it was 250 nM; in [9] it was 870 nM; in assay [5], 1000 nM.

The values are drawn from US20040005636A1, “Method for obtaining the binding affinities of a peptide library to a protein” (priority 2002, published 2004).
